Measurements as given in US4812312A, “Liposome-incorporated nystatin” (Board of Regents of the University of Texas System, priority 1987, dated 1989).
Like-named read-outs stand apart in the source and are kept apart here.

How the values were obtained:
HTLV-III/LAV = conditions: cell line H9; cited from earlier work
Candida albicans [1] = assay: Single-dose therapy with free Nys or L-Nys of disseminated C. albicans infection in mice; assay type: in vivo, Hale-Stoner mice; conditions: 4 mg/kg
Method: (§1) Hale-Stoner mice, six to eight weeks old (body weight, 20-25 g) were purchased from The University of Texas Science Park (Bastrop, TX). The mice (eight per group) were injected with 0.2 ml of C. albicans cell suspension containing 7×10^5 colony-forming units (cfu) via the tail vein. This concentration of cells was consistent in producing a disseminated infection after 48 hr, affecting liver, spleen, lungs, and kidneys primarily. Infected mice were treated with increasing doses of free-Nys, ranging from 1 mg to 4 mg/kg body weight (FIG. 5).
Mice were infected with C. albicans as described in Example 9. Groups of eight mice each were injected (iv) with various doses of free-Nys, L-Nys, empty liposomes or 5% DMSO two days after the injection of C. albicans. The survival of the animals in each group was noted and compared with that of the untreated control group.

Candida albicans [2] = assay: Single-dose therapy with free Nys of disseminated C. albicans infection in mice; assay type: in vivo, Hale-Stoner mice; conditions: single iv dose, 1 mg to 4 mg/kg
Method: as §1

[3] = cited from earlier work
[4] = orally and topically; cited from earlier work
mice = assay: In vivo toxicology in Hale-Stoner mice
Method: Groups of eight Hale-Stoner mice (6-8 weeks old, body wt=20-25 g; Univ. of TX Science Park, Bastrop, TX) each were injected with various doses of free-Nys (in 5% DMSO diluted with saline), L-Nys, empty liposomes or 5% DMSO as control. […] After 45 days, the surviving animals were sacrificed and blood and tissue samples were obtained. Blood biochemistry examination included blood urea nitrogen, alkaline phosphatase, and lactic dehydrogenase (LDH). The organs (liver, spleen, lungs and kidneys) were obtained and preserved in 10% formalin. Tissue slices were processed for hematoxylin-eosin and Gomori methenamine silver stains.

[5] = Solubility of nystatin / polyenes; assay type: physicochemical
[6] = tested on: Candida albicans strain 336; assay: In vitro MIC, twofold serial dilution, C. albicans strain 336 (Table 5); assay type: cell-based
Method: (§2) Organism, culture, and assay of antifungal activity in vitro. All strains of yeast were grown overnight at 37° C. on Sabouraud dextrose agar (SDA) plates. All molds were grown at 30° C. on SDA for 3 to 10 days prior to collection of spores. The inoculum was then processed for susceptibility testing as described earlier (Hopfer et al., Antimicrob. Agents Chemotherap., Vol. 25, pp 387-389 (1984)). A twofold serial dilution method (Shadomy et al., In E. H. Lennette, et al., (eds.) Manual of Clinical Microbiology, 3rd ed. American Society for Microbiology, Washington, D.C. , pp. 647-653 (1980)) adapted to microtiter plates was used to determine the minimal inhibitory concentration (MIC) of the drugs. The MIC of L-Nys were compared with that of free-Nys. Empty liposomes and 5% dimethylsulfoxide (DMSO) were used as controls.
The antifungal activity was maintained after Nys was entrapped in liposomes with or without sterols.

human RBCs = assay: Lysis of human red blood cells (hemoglobin release at 550 nm); assay type: cell-based; conditions: 37 °C, 45 min
Method: Lysis of human red blood cells (RBCs) was quantitated by measuring the release of hemoglobin in the supernatants at 550 nm, as described previously (Mehta et al., Biochem. Biophys, Acta., Vol. 770, pp. 230-234 (1984)). Various doses of L-Nys were incubated with fresh washed human RBCs at 37° C for 45 min. Free-Nys, dissolved in dimethyl formamide (DMFA), was added to the assay at a 3% final solvent concentration. Appropriate solvent controls, empty liposomes, and empty liposomes plus free-drug were also included in each experiment. Release of hemoglobin by hypotonic lysis of the same number of human RBCs by water was taken as 100% positive control, while cells treated with PBS were taken as negative controls.

Candida albicans [7] = assay: Multiple-dose therapy with Nys or L-Nys of disseminated C. albicans infection in mice; assay type: in vivo, Hale-Stoner mice
Method: as §1
Two days after the injection of C. albicans (iv), (as described in Examples 9 and 10), the mice were treated with different doses of free-Nys, L-Nys, empty liposomes or 5% DMSO control for five consecutive days. The multiple-dose groups were also compared with appropriate cumulative single doses (see Example 10). The animals were then observed for survival or any toxicity pertaining to the treatment with five daily doses.
These experiments were terminated at 60 days, and blood and tissue samples were collected from the surviving animals after sacrifice.
Survival curves were calculated by the method of Kaplan and Meier (J. Amer. Stat. Assoc., Vol. 53, pp 457-462 […]) and tests for differences in survival distributions were based on a generalized Wilcoxon test (Gehan., Biometrika, Vol. 52, pp 203-223 (1965)). […]

Candida tropicalis = assay: In vitro antifungal spectrum, MIC (Table 6); assay type: cell-based
Method: as §2
(§3) The L-Nys was prepared and tested generally as described above in this and earlier examples, except for the various new fungal varieties. […] (Hopfer et al., […], Vol. 25, No. 3, pp. 387-389 (1984)).

Aspergillus niger = assay: In vitro antifungal spectrum, MIC (Table 6); assay type: cell-based
Method: as §2, §3

Aspergillus flavus = assay: In vitro antifungal spectrum, MIC (Table 6); assay type: cell-based
Method: as §2, §3

Alternaria = assay: In vitro antifungal spectrum, MIC (Table 6); assay type: cell-based
Method: as §2, §3

Torulopsis globrata = assay: In vitro antifungal spectrum, MIC (Table 6); assay type: cell-based
Method: as §2, §3

Cryptococcus neoformans = assay: In vitro antifungal spectrum, MIC (Table 6); assay type: cell-based
Method: as §2, §3

Rhizopus = assay: In vitro antifungal spectrum, MIC (Table 6); assay type: cell-based
Method: as §2, §3

Candida albicans [8] = assay: In vitro antifungal spectrum, MIC (Table 6); assay type: cell-based
Method: as §2, §3

Fusarium = assay: In vitro antifungal spectrum, MIC (Table 6); assay type: cell-based
Method: as §2, §3

Candida paratropicalis = assay: In vitro antifungal spectrum, MIC (Table 6); assay type: cell-based
Method: as §2, §3

Mucor = assay: In vitro antifungal spectrum, MIC (Table 6); assay type: cell-based
Method: as §2, §3

Curvularia = assay: In vitro antifungal spectrum, MIC (Table 6); assay type: cell-based
Method: as §2, §3

[9] = tested on: Aspergillus not fumigatus; assay: In vitro antifungal spectrum, MIC (Table 6); assay type: cell-based
Method: as §2, §3

Aspergillus fumigatus = assay: In vitro antifungal spectrum, MIC (Table 6); assay type: cell-based
Method: as §2, §3

Allescheria = assay: In vitro antifungal spectrum, MIC (Table 6); assay type: cell-based
Method: as §2, §3

COC(=O)[C@H]1[C@@H]2C[C@@H](O[C@@H]3O[C@H](C)[C@@H](O)[C@H](N)[C@@H]3O)/C=C/C=C/C=C/C=C/C=C/C=C/C=C/[C@H](C)[C@@H](O)[C@@H](C)[C@H](C)OC(=O)C[C@H](O)C[C@H](O)CC[C@@H](O)[C@H](O)C[C@H](O)C[C@](O)(C[C@@H]1O)O2 [amphotericin B methyl ester ascorbate]
replication of HTLV-III/LAV in H9 cells (HTLV-III/LAV): inhibited

C[C@@H]1[C@H](O)[C@@H](C)/C=C/C=C/CC/C=C/C=C/C=C/C=C/C(O[C@H]2O[C@H](C)[C@@H](O)[C@H](N)[C@@H]2O)CC2O[C@](O)(CC(O)C(O)CCC(O)CC(O)CC(O)CC(=O)O[C@H]1C)CC(O)C2C(=O)O (some centres unmarked) [free-Nys, nystatin]
therapeutic effect in vivo (Candida albicans [1]): no therapeutic effect in vivo | survival of infected mice versus untreated control (Candida albicans [2]): None of the doses tested improved the survival of infected mice | solubility in water ([3]; listed as Nys): substantially water-insoluble | solubility in water ([3]; listed as Nystatin): aqueous insolubility | tolerability [4]: Tolerated well both orally and topically | mortality (mice; 4.4 mg/kg, mice, iv): all the animals died immediately | toxicity and efficacy when administered intravenously (mice; intravenous, summary): toxic and noneffective when administered intravenously | maximal tolerated dose (MTD) (mice; mice, iv, per body weight): 4 mg/kg | soluble in DMFA ([5]; N,N-dimethylformamide): 15 mg/mL | soluble in DMSO ([5]; dimethyl sulfoxide): 40 mg/mL | soluble in methanol ([5]; methanol): 1 mg/mL | Minimal Inhibitory Concentration [6]: 1.0 µg/mL | lysis of human RBCs (human RBCs; 120 ug/ml): 100% | concentration range with linear increase in lysis of human RBCs (human RBCs): 60 to 120 µg/mL | survival time (Candida albicans [7]; single or multiple doses): 10 days | survival of infected mice (Candida albicans [7]; single or multiple doses (MTD, five consecutive days)): died as rapidly as the untreated controls | Minimal Inhibitory Concentration (Candida tropicalis; C. tropicalis #1): 16 µg/mL | Minimal Inhibitory Concentration (Candida tropicalis; C. tropicalis #2): 8 µg/mL | Minimal Inhibitory Concentration (Candida tropicalis; C. tropicalis #3): 4 µg/mL | Minimal Inhibitory Concentration (Candida tropicalis; C. tropicalis #4): 4 µg/mL | Minimal Inhibitory Concentration (Aspergillus niger): 4 µg/mL | Minimal Inhibitory Concentration (Aspergillus flavus): 1 µg/mL | Minimal Inhibitory Concentration (Alternaria): 2 µg/mL | Minimal Inhibitory Concentration (Torulopsis globrata; Torulopsis globrata #1): 4 µg/mL | Minimal Inhibitory Concentration (Torulopsis globrata; Torulopsis globrata #2): 2 µg/mL | Minimal Inhibitory Concentration (Torulopsis globrata; Torulopsis globrata #3): 4 µg/mL | Minimal Inhibitory Concentration (Torulopsis globrata; Torulopsis globrata #4): 4 µg/mL | Minimal Inhibitory Concentration (Cryptococcus neoformans; Cryptococcus neoformans #1): 4 µg/mL | Minimal Inhibitory Concentration (Cryptococcus neoformans; Cryptococcus neoformans #2): 4 µg/mL | Minimal Inhibitory Concentration (Rhizopus): 4 µg/mL | Minimal Inhibitory Concentration (Candida albicans [8]; C. albicans #1): 2 µg/mL | Minimal Inhibitory Concentration (Candida albicans [8]; C. albicans #2): 2 µg/mL | Minimal Inhibitory Concentration (Candida albicans [8]; C. albicans #3): 4 µg/mL | Minimal Inhibitory Concentration (Candida albicans [8]; C. albicans #4): 4 µg/mL | Minimal Inhibitory Concentration (Candida albicans [8]; C. albicans #5): 8 µg/mL | Minimal Inhibitory Concentration (Candida albicans [8]; C. albicans #6): 4 µg/mL | Minimal Inhibitory Concentration (Candida albicans [8]; C. albicans #7): 8 µg/mL | Minimal Inhibitory Concentration (Candida albicans [8]; C. albicans #8): 8 µg/mL | Minimal Inhibitory Concentration (Candida albicans [8]; C. albicans #9): 4 µg/mL | Minimal Inhibitory Concentration (Candida albicans [8]; C. albicans #10): 4 µg/mL | Minimal Inhibitory Concentration (Fusarium): 62.5 µg/mL | Minimal Inhibitory Concentration (Candida paratropicalis; C. paratropicalis #1): 2 µg/mL | Minimal Inhibitory Concentration (Candida paratropicalis; C. paratropicalis #2): 2 µg/mL | Minimal Inhibitory Concentration (Candida paratropicalis; C. paratropicalis #3): 4 µg/mL | Minimal Inhibitory Concentration (Candida paratropicalis; C. paratropicalis #4): 4 µg/mL | Minimal Inhibitory Concentration (Mucor): 2 µg/mL | Minimal Inhibitory Concentration (Curvularia): 2 µg/mL | Minimal Inhibitory Concentration ([9]; Aspergillus not fumigatus #1): 4 µg/mL | Minimal Inhibitory Concentration ([9]; Aspergillus not fumigatus #2): 16 µg/mL | Minimal Inhibitory Concentration (Aspergillus fumigatus): 8 µg/mL | Minimal Inhibitory Concentration (Allescheria): 16 µg/mL

C[C@@H]1[C@H](O)[C@@H](C)/C=C/C=C/C=C/C=C/C=C/C=C/C=C/[C@H](O[C@@H]2O[C@H](C)[C@@H](O)[C@H](N)[C@@H]2O)C[C@@H]2O[C@](O)(C[C@@H](O)C[C@@H](O)[C@H](O)CC[C@@H](O)C[C@@H](O)CC(=O)O[C@H]1C)C[C@H](O)[C@H]2C(=O)O [amphotericin B]
replication of HTLV-III/LAV in H9 cells (HTLV-III/LAV): inhibited
